Legend:
Assay type in all cases: in vivo
flixweed = assay: wheat field resistant broadleaf weed control, greenhouse spray at 4 leaf stage; set-up: key: Level 10: completely dead; Level 9: above 95% growth control rate; Level 8: above 90% growth control rate; Level 7: above 80% growth control rate; Level 6: above 70% growth control rate; Level 5: above 60% growth control rate; Level 4: above 50% growth control rate; Level 3: above 20% growth control rate; Level 2: 5%-20% growth control rate; Level 1: below 5% growth control rate; conditions: 250 g/ha of the active substance; 4 weeks after treatment; ALS inhibitor resistant
Protocol: (§1) The activity level standard of harmful plant destruction (i.e. growth control rate) is as follows:
(§2) The above described growth control rate is fresh weight control rate.
(§3) The seeds of alopecurus japonicas, flixweed, shepherd's purse, corn gromwell, chickweed, beckmannia syzigachne, and annual ryegrass and wheat seeds were put into a plastic pot loaded with soil, and then covered with 0.5-2 cm soil, the seeds were allowed to grow in good greenhouse environment. The test plants were treated at 4 leaf stage 2-3 weeks after sowing. The test compounds of the present invention were dissolved in acetone respectively, then added with methyl oleate emulsion and diluted by certain amount of water to certain concentration. The solution was sprayed to the plant with a sprayer. Then the plants were cultured for 4 weeks in greenhouse.

shepherd's purse = assay: as above; set-up: key: Level 10: completely dead; Level 9: above 95% growth control rate; Level 8: above 90% growth control rate; Level 7: above 80% growth control rate; Level 6: above 70% growth control rate; Level 5: above 60% growth control rate; Level 4: above 50% growth control rate; Level 3: above 20% growth control rate; Level 2: 5%-20% growth control rate; Level 1: below 5% growth control rate; conditions: 250 g/ha of the active substance; 4 weeks after treatment; ALS inhibitor resistant
Protocol: as §1, §2, §3

chickweed = assay: as above; set-up: key: Level 10: completely dead; Level 9: above 95% growth control rate; Level 8: above 90% growth control rate; Level 7: above 80% growth control rate; Level 6: above 70% growth control rate; Level 5: above 60% growth control rate; Level 4: above 50% growth control rate; Level 3: above 20% growth control rate; Level 2: 5%-20% growth control rate; Level 1: below 5% growth control rate; conditions: 250 g/ha of the active substance; 4 weeks after treatment; ALS inhibitor resistant
Protocol: as §1, §2, §3

corn gromwell = assay: as above; set-up: key: Level 10: completely dead; Level 9: above 95% growth control rate; Level 8: above 90% growth control rate; Level 7: above 80% growth control rate; Level 6: above 70% growth control rate; Level 5: above 60% growth control rate; Level 4: above 50% growth control rate; Level 3: above 20% growth control rate; Level 2: 5%-20% growth control rate; Level 1: below 5% growth control rate; conditions: 250 g/ha of the active substance; 4 weeks after treatment; ALS inhibitor resistant
Protocol: as §1, §2, §3

Indian mallow = assay: weed control effect in post-emergence stage (Table 1); set-up: key: Level 10: completely dead; Level 9: above 95% growth control rate; Level 8: above 90% growth control rate; Level 7: above 80% growth control rate; Level 6: above 70% growth control rate; Level 5: above 60% growth control rate; Level 4: above 50% growth control rate; Level 3: above 20% growth control rate; Level 2: 5%-20% growth control rate; Level 1: below 5% growth control rate; conditions: post-emergence spray at 4-5 leaf stage, 250 g/ha active ingredient with 450 kg/ha water, rated after 3 weeks in greenhouse
Procedure, shortened: (§4)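 Fresh-weight-based growth control rate was assessed 3 weeks after spraying. Test compound, dissolved in acetone, with tween 80 added and diluted in water, was sprayed onto greenhouse-grown, pot-cultured weeds and crop plants at 4-5 leaves, 2-3 weeks post-sowing.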

crab grass = assay: as above; set-up: key: Level 10: completely dead; Level 9: above 95% growth control rate; Level 8: above 90% growth control rate; Level 7: above 80% growth control rate; Level 6: above 70% growth control rate; Level 5: above 60% growth control rate; Level 4: above 50% growth control rate; Level 3: above 20% growth control rate; Level 2: 5%-20% growth control rate; Level 1: below 5% growth control rate; conditions: post-emergence spray at 4-5 leaf stage, 250 g/ha active ingredient with 450 kg/ha water, rated after 3 weeks in greenhouse
Procedure, shortened: as §4

foxtail = assay: as above; set-up: key: Level 10: completely dead; Level 9: above 95% growth control rate; Level 8: above 90% growth control rate; Level 7: above 80% growth control rate; Level 6: above 70% growth control rate; Level 5: above 60% growth control rate; Level 4: above 50% growth control rate; Level 3: above 20% growth control rate; Level 2: 5%-20% growth control rate; Level 1: below 5% growth control rate; conditions: post-emergence spray at 4-5 leaf stage, 250 g/ha active ingredient with 450 kg/ha water, rated after 3 weeks in greenhouse
Procedure, shortened: as §4

echinochloa = assay: as above; set-up: key: Level 10: completely dead; Level 9: above 95% growth control rate; Level 8: above 90% growth control rate; Level 7: above 80% growth control rate; Level 6: above 70% growth control rate; Level 5: above 60% growth control rate; Level 4: above 50% growth control rate; Level 3: above 20% growth control rate; Level 2: 5%-20% growth control rate; Level 1: below 5% growth control rate; conditions: post-emergence spray at 4-5 leaf stage, 250 g/ha active ingredient with 450 kg/ha water, rated after 3 weeks in greenhouse
Procedure, shortened: as §4

rorippa indica = assay: as above; set-up: key: Level 10: completely dead; Level 9: above 95% growth control rate; Level 8: above 90% growth control rate; Level 7: above 80% growth control rate; Level 6: above 70% growth control rate; Level 5: above 60% growth control rate; Level 4: above 50% growth control rate; Level 3: above 20% growth control rate; Level 2: 5%-20% growth control rate; Level 1: below 5% growth control rate; conditions: post-emergence spray at 4-5 leaf stage, 250 g/ha active ingredient with 450 kg/ha water, rated after 3 weeks in greenhouse
Procedure, shortened: as §4

wheat [1] = assay: wheat field test, crop selectivity, greenhouse spray at 4 leaf stage; conditions: 4 weeks after treatment
Protocol: as §1, §2, §3

corn = assay: post-emergence stage experiment, crop (Table 1); conditions: post-emergence spray at 4-5 leaf stage, 250 g/ha active ingredient with 450 kg/ha water, rated after 3 weeks in greenhouse
Procedure, shortened: as §4

wheat [2] = assay: post-emergence stage experiment, crop (Table 1); conditions: post-emergence spray at 4-5 leaf stage, 250 g/ha active ingredient with 450 kg/ha water, rated after 3 weeks in greenhouse
Procedure, shortened: as §4

rice = assay: post-emergence stage experiment, crop (Table 1); conditions: post-emergence spray at 4-5 leaf stage, 250 g/ha active ingredient with 450 kg/ha water, rated after 3 weeks in greenhouse
Procedure, shortened: as §4

bidens bipinnata = assay: weed control effect in post-emergence stage (Table 1); set-up: key: Level 10: completely dead; Level 9: above 95% growth control rate; Level 8: above 90% growth control rate; Level 7: above 80% growth control rate; Level 6: above 70% growth control rate; Level 5: above 60% growth control rate; Level 4: above 50% growth control rate; Level 3: above 20% growth control rate; Level 2: 5%-20% growth control rate; Level 1: below 5% growth control rate; conditions: post-emergence spray at 4-5 leaf stage, 250 g/ha active ingredient with 450 kg/ha water, rated after 3 weeks in greenhouse
Procedure, shortened: as §4

alopecurus japonicas = assay: wheat field resistant weed control, greenhouse spray at 4 leaf stage; set-up: key: Level 10: completely dead; Level 9: above 95% growth control rate; Level 8: above 90% growth control rate; Level 7: above 80% growth control rate; Level 6: above 70% growth control rate; Level 5: above 60% growth control rate; Level 4: above 50% growth control rate; Level 3: above 20% growth control rate; Level 2: 5%-20% growth control rate; Level 1: below 5% growth control rate; conditions: sprayed at 4 leaf stage, 4 weeks after treatment, resistant to ALS and ACCase inhibitor herbicides
Protocol: as §1, §2, §3

[3] = 250 g/ha of the active substance

effect on crop, Wheat (level) (wheat [2])	SMILES	flixweed weed controlling effect (activity level) (flixweed)	shepherd's purse weed controlling effect (activity level) (shepherd's purse)	chickweed weed controlling effect (activity level) (chickweed)	corn gromwell weed controlling effect (activity level) (corn gromwell)	weed control effect, Indian mallow (level) (Indian mallow)	weed control effect, Crab grass (level) (crab grass)	weed control effect, Green foxtail (level) (foxtail)	weed control effect, Echinochloa (level) (echinochloa)	weed control effect, Rorippa indica (level) (rorippa indica)	Wheat (activity level, crop damage) (wheat [1]; [3])	effect on crop, Corn (level) (corn)	effect on crop, Rice (level) (rice)	also measured
0	CC(=O)N(CC(F)F)c1c(C(F)(F)F)ccc(C(=O)c2c(C)nn(C)c2O)c1Cl [Compound 005]	10	10	10	10	10	2 (Level 2: 5%-20% growth control rate)	5 (Level 5: above 60% growth control rate)	10	10	0	–	7 (Level 7: above 80% growth control rate)	weed control effect, Bidens bipinnata (level) (bidens bipinnata): 10
0	Cc1cnn(-c2c(C(F)(F)F)ccc(C(=O)c3c(C4CC4)nn(C)c3OC(=O)c3cn(C)nc3C)c2Cl)c1 [Compound 090]	10	10	10	10	10	1 (Level 1: below 5% growth control rate)	2 (Level 2: 5%-20% growth control rate)	6 (Level 6: above 70% growth control rate)	10	0	1 (Level 1: below 5% growth control rate)	2 (Level 2: 5%-20% growth control rate)	–
0	Cc1nn(C)cc1C(=O)Oc1c(C(=O)c2ccc(C(F)(F)F)c(-n3cccn3)c2Cl)c(C)nn1C [Compound 072]	10	10	10	10	10	4 (Level 4: above 50% growth control rate)	10	6 (Level 6: above 70% growth control rate)	10	0	3 (Level 3: above 20% growth control rate)	4 (Level 4: above 50% growth control rate)	–

More lines, now with the values behind:

SMILES	effect on crop, Wheat (level) (wheat [2])	flixweed weed controlling effect (activity level) (flixweed)	shepherd's purse weed controlling effect (activity level) (shepherd's purse)	chickweed weed controlling effect (activity level) (chickweed)	corn gromwell weed controlling effect (activity level) (corn gromwell)	weed control effect, Indian mallow (level) (Indian mallow)	weed control effect, Crab grass (level) (crab grass)	weed control effect, Green foxtail (level) (foxtail)	weed control effect, Echinochloa (level) (echinochloa)	weed control effect, Rorippa indica (level) (rorippa indica)	Wheat (activity level, crop damage) (wheat [1]; [3])	effect on crop, Corn (level) (corn)	effect on crop, Rice (level) (rice)	also measured
Cc1nn(C)cc1C(=O)Oc1c(C(=O)c2ccc(C(F)(F)F)c(-n3cccn3)c2Cl)cnn1C [Compound 067]	0	10	10	10	10	10	7 (Level 7: above 80% growth control rate)	10	7 (Level 7: above 80% growth control rate)	10	0	3 (Level 3: above 20% growth control rate)	3 (Level 3: above 20% growth control rate)	–
O=C(c1ccc(C(F)(F)F)c(N2CCCCC2=O)c1Cl)c1c(C2CC2)nn(C2CC2)c1O [Compound 148]	–	10	10	10	10	–	–	–	–	–	1 (Level 1: below 5% growth control rate)	–	–	–
Cc1nn(C)cc1C(=O)Oc1c(C(=O)c2ccc(C(F)(F)F)c(N3CCCC3=O)c2Cl)c(C2CC2)nn1C [Compound 027]	3 (Level 3: above 20% growth control rate)	–	–	–	–	10	8 (Level 8: above 90% growth control rate)	10	7 (Level 7: above 80% growth control rate)	7 (Level 7: above 80% growth control rate)	–	4 (Level 4: above 50% growth control rate)	7 (Level 7: above 80% growth control rate)	weed control effect, Bidens bipinnata (level) (bidens bipinnata): 8 (Level 8: above 90% growth control rate); Alopecurus japonicas weed controlling effect (activity level) (alopecurus japonicas; 1 g/mu): 6 (Level 6: above 70% growth control rate); Alopecurus japonicas weed controlling effect (activity level) (alopecurus japonicas; 2 g/mu): 10; Alopecurus japonicas weed controlling effect (activity level) (alopecurus japonicas; 4 g/mu): 10; Alopecurus japonicas weed controlling effect (activity level) (alopecurus japonicas; 8 g/mu): 10; Wheat (activity level, crop damage) (wheat [1]; 2 g/mu, sprayed at 4 leaf stage): 1 (Level 1: below 5% growth control rate); Wheat (activity level, crop damage) (wheat [1]; 4 g/mu, sprayed at 4 leaf stage): 4 (Level 4: above 50% growth control rate); Wheat (activity level, crop damage) (wheat [1]; 8 g/mu, sprayed at 4 leaf stage): 4 (Level 4: above 50% growth control rate); Wheat (activity level, crop damage) (wheat [1]; 16 g/mu, sprayed at 4 leaf stage): 4 (Level 4: above 50% growth control rate); Wheat (activity level, crop damage) (wheat [1]; 32 g/mu, sprayed at 4 leaf stage): 5 (Level 5: above 60% growth control rate)
CC(C)n1nc(C2CC2)c(C(=O)c2ccc(C(F)(F)F)c(N3CCCCC3=O)c2Cl)c1O [Compound 147]	–	10	10	9 (Level 9: above 95% growth control rate)	10	–	–	–	–	–	0	–	–	–
